In patent US4622244A, “Process for preparation of microcapsules” (The Washington University, priority 1984, dated 1986):
In brackets after ≈: the same amount, converted by molar mass. Like-named read-outs stand apart in the source and are kept apart here.

What was measured:
[1] = Mouse tail-flick test, morphine challenge; assay type: in vivo
Protocol: Microcapsules (177-295 microns in size) so prepared were evaluated by the mouse tail-flick test procedure. Mice (groups of 6) were the test animals. The morphine challenge dose was 10 mg./kg. mouse; test animal response was measured 20 min. after morphine injection. As will be seen, the microcapsules caused more than 50% antagonism 28 days after injection both in the tests in which peanut oil was used as the suspending medium and in the tests where peanut oil plus aluminum monostearate was used as the suspending medium.
*All injections (1 cc/100 g mouse) given through 18 gauge needle; Morphin
challenge dose: 10 mg/kg mouse; Capsule size: 177-295μ; Active content
of capsules initially: 67 wt. %.
Similar studies were run with microcapsules (105 to 177 microns in size) of naltrexone free base (NFB) prepared in the same manner as the naltrexone pamoate microcapsules.
challenge dose: 10 mg/kg mouse; Capsule size: 105-177μ; Active content

[2] = In vitro release/dissolution by end-over-end tumbling in phosphate buffer at 37° C.; assay type: physicochemical
[3] = Solubility of cyclazocine in solvents (equilibration, solids content after solvent evaporation); assay type: physicochemical
Protocol: For example, taking cyclazocine as the solid, injectable drug material, Table I summarizes the solubility data obtained for this drug in a number of solvents.
After equilibration (20-30 min), one ml. of solution was transferred to a tared weighing dish and the solids content determined by solvent evaporation.
In particular, the aromatic solvents have little tendency to dissolve it at room temperature.

Question: What does the source list for `O=C1CC[C@@]2(O)[C@H]3Cc4ccc(O)c5c4[C@@]2(CCN3CC2CC2)[C@H]1O5` [NFB]?
Answer: % Antagonism ([1]; 7 days, 40 mg unencapsulated NFB/kg mouse, peanut oil): 80.0%; % Antagonism ([1]; 7 days, 40 mg unencapsulated NFB/kg mouse, peanut oil + 2 wt. % AIMS): 54.1%; % Antagonism ([1]; 10 days, 40 mg unencapsulated NFB/kg mouse, peanut oil): 39.7%; % Antagonism ([1]; 10 days, 40 mg unencapsulated NFB/kg mouse, peanut oil + 2 wt. % AIMS): 69.5%; % Antagonism ([1]; 14 days, 40 mg unencapsulated NFB/kg mouse, peanut oil): 21.8%; % Antagonism ([1]; 14 days, 40 mg unencapsulated NFB/kg mouse, peanut oil + 2 wt. % AIMS): 48.0%; % Antagonism ([1]; 21 days, 40 mg unencapsulated NFB/kg mouse, peanut oil): 8.1%; % Antagonism ([1]; 21 days, 40 mg unencapsulated NFB/kg mouse, peanut oil + 2 wt. % AIMS): 15.2%

Question: With `O=C1CC[C@@]2(O)[C@H]3Cc4ccc(O)c5c4[C@@]2(CCN3CC2CC2)[C@H]1O5` [NP] as the compound, how does the “% Antagonism” value ([1]; 7 days, 40 mg unencapsulated NP/kg mouse, peanut oil) read?
Answer: 66.1%

Question: What about the “% Antagonism” value ([1]; 7 days, 40 mg unencapsulated NP/kg mouse, peanut oil + 2 wt. % AIMS) of the same compound?
Answer: 88.3%

Question: And the “% Antagonism” value ([1]; 14 days, 40 mg unencapsulated NP/kg mouse, peanut oil)?
Answer: 59.1%

Question: And the “% Antagonism” value ([1]; 14 days, 40 mg unencapsulated NP/kg mouse, peanut oil + 2 wt. % AIMS)?
Answer: 52.9%

Question: And the “% Antagonism” value ([1]; 21 days, 40 mg unencapsulated NP/kg mouse, peanut oil)?
Answer: 12.9%

Question: And the “% Antagonism” value ([1]; 21 days, 40 mg unencapsulated NP/kg mouse, peanut oil + 2 wt. % AIMS)?
Answer: 11.2%

Question: And the “% Antagonism” value ([1]; 28 days, 40 mg unencapsulated NP/kg mouse, peanut oil)?
Answer: 13.9%

Question: And the “% Antagonism” value ([1]; 28 days, 40 mg unencapsulated NP/kg mouse, peanut oil + 2 wt. % AIMS)?
Answer: 18.4%

Question: For `C[C@H]1[C@H]2Cc3ccc(O)cc3[C@]1(C)CCN2CC1CC1` [cyclazocine, 3-(cyclopropylmethyl)-1,2,3,4,-5,6-hexahydro-6,11-dimethyl-2,6-methano-3-benzazocin-8-ol], which “Complete dissolution time of unencapsulated drug” value ([2]; buffer pH 7.4) is on record?
Answer: ≤ 15 min

Question: What about the “Complete dissolution time of unencapsulated drug” value ([2]; same buffer, pH 7.0) of the same compound?
Answer: ≤ 15 min

Question: What about the solubility ([3]; 25 acetone/75 ethanol (v/v), organic solvent or mixture, 25 acetone/75 ethanol (V/V), 25° C., read-out: Solubility) of the same compound?
Answer: 4540 µg/mL (≈ 16.7 mM)

Question: What about the solubility ([3]; 50 acetone/50 ethanol (v/v), organic solvent or mixture, 50 acetone/50 ethanol (V/V), 25° C., read-out: Solubility) of the same compound?
Answer: 4700 µg/mL (≈ 17.3 mM)

Question: What about the solubility ([3]; 75 acetone/25 ethanol (v/v), organic solvent or mixture, 75 acetone/25 ethanol (V/V), 25° C., read-out: Solubility) of the same compound?
Answer: 4740 µg/mL (≈ 17.5 mM)

Question: And the solubility ([3]; acetone, organic solvent or mixture, acetone, 25° C., read-out: Solubility)?
Answer: 5100 µg/mL (≈ 18.8 mM)

Question: What about the solubility ([3]; benzene, organic solvent or mixture, benzene, 25° C., read-out: Solubility) of the same compound?
Answer: 1400 µg/mL (≈ 5.16 mM)

Question: And the solubility ([3]; benzene, organic solvent or mixture, benzene, 50° C., read-out: Solubility)?
Answer: 2400 µg/mL (≈ 8.84 mM)

Question: And the solubility ([3]; chloroform, organic solvent or mixture, chloroform, 25° C., read-out: Solubility)?
Answer: 7600 µg/mL (≈ 28 mM)

Question: And the solubility ([3]; cyclohexane, 80° C.)?
Answer: Insoluble

Question: What about the solubility ([3]; decahydronaphthalene, organic solvent or mixture, decahydronaphthalene, 25° C., read-out: Solubility) of the same compound?
Answer: 1700 µg/mL (≈ 6.26 mM)

Question: What about the solubility ([3]; decahydronaphthalene, organic solvent or mixture, decahydronaphthalene, 130° C., read-out: Solubility) of the same compound?
Answer: 3400 µg/mL (≈ 12.5 mM)

Question: What about the solubility ([3]; ethanol, organic solvent or mixture, ethanol, 25° C., read-out: Solubility) of the same compound?
Answer: 6640 µg/mL (≈ 24.5 mM)

Question: What about the solubility ([3]; ethanol, organic solvent or mixture, ethanol, 73° C., read-out: Solubility) of the same compound?
Answer: 52000 µg/mL (≈ 192 mM)

Question: And the solubility ([3]; ethyl acetate, organic solvent or mixture, ethyl acetate, 4° C., read-out: Solubility)?
Answer: 2600 µg/mL (≈ 9.58 mM)

Question: And the solubility ([3]; ethyl acetate, organic solvent or mixture, ethyl acetate, 25° C., read-out: Solubility)?
Answer: 6300 µg/mL (≈ 23.2 mM)

Question: What about the solubility ([3]; ethyl acetate, organic solvent or mixture, ethyl acetate, 77° C., read-out: Solubility) of the same compound?
Answer: 45000 µg/mL (≈ 166 mM)

Question: What about the solubility ([3]; isopropanol, organic solvent or mixture, isopropanol, 25° C., read-out: Solubility) of the same compound?
Answer: 26800 µg/mL (≈ 98.7 mM)

Question: What about the solubility ([3]; isopropanol, organic solvent or mixture, isopropanol, 80° C., read-out: Solubility) of the same compound?
Answer: 26800 µg/mL (≈ 98.7 mM)

Question: What about the solubility ([3]; methanol, organic solvent or mixture, methanol, 25° C., read-out: Solubility) of the same compound?
Answer: 18400 µg/mL (≈ 67.8 mM)

Question: What about the solubility ([3]; methanol, organic solvent or mixture, methanol, 63° C., read-out: Solubility) of the same compound?
Answer: 33200 µg/mL (≈ 122 mM)

Question: And the solubility ([3]; methyl ethyl ketone, organic solvent or mixture, methyl ethyl ketone, 4° C., read-out: Solubility)?
Answer: 9100 µg/mL (≈ 33.5 mM)

Question: What about the solubility ([3]; methyl ethyl ketone, organic solvent or mixture, methyl ethyl ketone, 25° C., read-out: Solubility) of the same compound?
Answer: 16000 µg/mL (≈ 59 mM)

Question: What about the solubility ([3]; methyl ethyl ketone, organic solvent or mixture, methyl ethyl ketone, 79° C., read-out: Solubility) of the same compound?
Answer: 59800 µg/mL (≈ 220 mM)

Question: What about the solubility ([3]; n-butanol, organic solvent or mixture, n-butanol, 4° C., read-out: Solubility) of the same compound?
Answer: 4500 µg/mL (≈ 16.6 mM)

Question: And the solubility ([3]; n-butanol, organic solvent or mixture, n-butanol, 25° C., read-out: Solubility)?
Answer: 15000 µg/mL (≈ 55.3 mM)

Question: And the solubility ([3]; n-butanol, organic solvent or mixture, n-butanol, 117° C., read-out: Solubility)?
Answer: 215000 µg/mL (≈ 792 mM)

Question: What about the “Solubility (in words)” value ([3]; range of solvents, room temperature) of the same compound?
Answer: relatively low solubility

Question: What about the solubility ([3]; toluene, organic solvent or mixture, toluene, 25° C., read-out: Solubility) of the same compound?
Answer: 1000 µg/mL (≈ 3.68 mM)

Question: What about the solubility ([3]; toluene, organic solvent or mixture, toluene, 35° C., read-out: Solubility) of the same compound?
Answer: 1500 µg/mL (≈ 5.53 mM)

Question: What about the solubility ([3]; toluene, organic solvent or mixture, toluene, 50° C., read-out: Solubility) of the same compound?
Answer: 4000 µg/mL (≈ 14.7 mM)

Question: What about the solubility ([3]; toluene, organic solvent or mixture, toluene, 100° C., read-out: Solubility) of the same compound?
Answer: 15000 µg/mL (≈ 55.3 mM)

Question: What about the solubility ([3]; xylene, organic solvent or mixture, xylene, 25° C., read-out: Solubility) of the same compound?
Answer: 1200 µg/mL (≈ 4.42 mM)

Question: What about the solubility ([3]; xylene, organic solvent or mixture, xylene, 50° C., read-out: Solubility) of the same compound?
Answer: 1800 µg/mL (≈ 6.63 mM)

Question: What about the solubility ([3]; xylene, organic solvent or mixture, xylene, 90° C., read-out: Solubility) of the same compound?
Answer: 17500 µg/mL (≈ 64.5 mM)
